Test [1] concerns human PRP (platelet rich plasma). Description: Pharmacological test 1: inhibition of ADP-induced platelet aggregation in human PRP. Type of test: cell-based. The settings on record: Platelet, ADP 5 μM inducer; for inhibition at 1 µM: inhibition rate at 10^-6 M; for IC50: Homo sapiens, platelet aggregation. The procedure:
Pharmacological test 1 Inhibition of platelet aggregation
The effect of the compound according to the present invention on inhibiting the platelet aggregation was examined with human PRP (platelet rich plasma).
Nine volumes of a blood sample was taken out of the vein of a normal human with a syringe in which one volume of a 3.8% sodium citrate solution was charged. The blood sample was centrifuged at 170×g at room temperature for 10 minutes. The supernatant thus obtained was isolated as PRP. The residual blood sample that PRP had been taken out was centrifuged at 2,700×g for 15 minutes. The supernatant was then taken as platelet poor plasma (PPP).
Platelet aggregation test was conducted with an aggligometer (PAM-8C; manufactured by MEBANICKS Co., Ltd.). Compounds to be tested were dissolved in a 50% DMSO saline, a 50% methanol saline or physiological saline. The compound and PRP were preincubated for 2 minutes. The ADP (CHRONO-PAR REAGENTS 384 ADP, CHRONO-LOG Corp.) was used as an inducer in the form of a dilution with saline so that the final concentration is 5 μM.
Anti-platelet aggregation activity was obtained as an inhibition rate to platelet aggregation effect of ADP in the absence of a compound to be tested as follows: [formula] Physiological test 2 Inhibition of fibrinogen bonding to platelet GPIIb/IIIa

For test [2], the target named is T1, human platelet GPIIb/IIIa (Homo sapiens, UniProt P05106+P08514).
T1 construct: platelets collected from healthy adults; from tissue; host or cells: platelets from healthy adults (solubilized with octylglucoside, purified on GRGDSPK-Sepharose)
T1 sequence (P08514 32-887 limits assumed): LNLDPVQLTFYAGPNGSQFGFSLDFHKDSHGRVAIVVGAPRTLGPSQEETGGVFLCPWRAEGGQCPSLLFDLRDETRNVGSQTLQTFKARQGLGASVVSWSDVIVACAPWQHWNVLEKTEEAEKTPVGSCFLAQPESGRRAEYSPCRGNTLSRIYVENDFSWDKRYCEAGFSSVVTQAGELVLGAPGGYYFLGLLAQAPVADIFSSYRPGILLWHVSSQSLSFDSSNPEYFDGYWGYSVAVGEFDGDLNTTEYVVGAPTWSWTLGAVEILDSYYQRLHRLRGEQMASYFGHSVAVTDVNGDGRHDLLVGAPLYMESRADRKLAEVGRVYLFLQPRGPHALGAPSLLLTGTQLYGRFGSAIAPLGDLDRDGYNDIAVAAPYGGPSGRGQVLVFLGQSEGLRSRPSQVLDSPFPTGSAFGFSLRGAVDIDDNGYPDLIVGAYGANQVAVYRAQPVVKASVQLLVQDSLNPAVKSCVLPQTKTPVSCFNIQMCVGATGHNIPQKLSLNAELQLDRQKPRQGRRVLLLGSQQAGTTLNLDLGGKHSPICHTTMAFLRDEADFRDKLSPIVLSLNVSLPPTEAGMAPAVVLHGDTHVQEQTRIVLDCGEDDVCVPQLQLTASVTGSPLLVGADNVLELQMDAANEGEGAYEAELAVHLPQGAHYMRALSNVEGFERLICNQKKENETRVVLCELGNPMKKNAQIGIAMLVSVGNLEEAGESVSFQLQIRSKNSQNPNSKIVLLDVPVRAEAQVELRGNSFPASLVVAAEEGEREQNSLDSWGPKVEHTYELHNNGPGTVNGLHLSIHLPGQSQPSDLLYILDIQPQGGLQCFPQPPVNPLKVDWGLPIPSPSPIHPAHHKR
T1 sequence (P08514 891-1039 limits assumed): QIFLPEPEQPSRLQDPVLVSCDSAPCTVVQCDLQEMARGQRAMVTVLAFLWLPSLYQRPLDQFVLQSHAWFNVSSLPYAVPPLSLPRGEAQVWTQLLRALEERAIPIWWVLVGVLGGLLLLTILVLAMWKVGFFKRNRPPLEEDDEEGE
T1 sequence (P05106 27-788): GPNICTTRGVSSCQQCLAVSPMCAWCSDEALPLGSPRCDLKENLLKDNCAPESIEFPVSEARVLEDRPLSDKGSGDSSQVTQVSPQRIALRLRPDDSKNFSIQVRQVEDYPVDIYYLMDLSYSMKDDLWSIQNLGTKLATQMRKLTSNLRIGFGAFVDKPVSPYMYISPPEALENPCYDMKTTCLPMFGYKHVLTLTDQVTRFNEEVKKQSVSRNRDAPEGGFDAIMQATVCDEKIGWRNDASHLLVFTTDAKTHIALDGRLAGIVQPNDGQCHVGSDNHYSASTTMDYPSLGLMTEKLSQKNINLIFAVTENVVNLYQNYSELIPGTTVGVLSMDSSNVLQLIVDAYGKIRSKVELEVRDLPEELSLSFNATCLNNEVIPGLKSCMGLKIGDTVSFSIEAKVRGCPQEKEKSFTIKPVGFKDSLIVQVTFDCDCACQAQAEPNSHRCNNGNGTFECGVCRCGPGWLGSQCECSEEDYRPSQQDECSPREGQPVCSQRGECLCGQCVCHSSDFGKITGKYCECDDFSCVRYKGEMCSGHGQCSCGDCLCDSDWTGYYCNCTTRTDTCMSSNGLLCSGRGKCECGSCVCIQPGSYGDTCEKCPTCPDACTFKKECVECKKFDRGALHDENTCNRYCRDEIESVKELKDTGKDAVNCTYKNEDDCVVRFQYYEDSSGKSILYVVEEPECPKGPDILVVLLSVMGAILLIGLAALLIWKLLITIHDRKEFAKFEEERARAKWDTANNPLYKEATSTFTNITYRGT
In words: Pharmacological test 2: inhibition of fibrinogen bonding to platelet GPIIb/IIIa (solid phase assay, biotinylated fibrinogen). Type of test: binding. The settings on record: for inhibition at 10 µM: inhibition rate at 10^-5 M; for inhibition at 0.1 µM: inhibition rate at 10^-7 M; for IC50: fibrinogen bonding to GPIIb/IIIa. On the procedure: Inhibiting effect of the compound according to the present invention on the binding of platelet GPIIb/IIIa and fibrinogen was examined with a solid phase human platelet GPIIb/IIIa bonding assay using biotinylated fibrinogen as a ligand. Human platelet GPIIb/IIIa was purified according to the method described by Pytela, R. et al. (Science, 231, 1559-1561 (1986)). […] The same amount of TBS containing 50 mM octylglucoside and 2 mM PMSF was added to the pellet obtained in order to solubilize the membrane protein at 4° C. for 20 minutes. […] The solubilized protein solution was adsorbed on a GRGDSPK-Sepharose column which had been equilibrated with TBS (Buffer A) containing 50 mM Octylglucoside, 1 mM CaCl2 and MgCl2. After the column was washed with Buffer A, the adsorbed GPIIb/IIIa was eluted with Buffer A containing 2 mM GRGDSP peptide. GRGDSPK-Sepharose was prepared by coupling GRGDSPK peptide and CNBr-activated Sepharose 4B (Pharmacia) according to the instruction of the manufacturer. Then, solid phase human platelet GPIIb/IIIa bonding assay was carried out according to the method of Mori et al. […] Purified human platelet GPIIb/IIIa was adjusted in an amount of 2 μg/ml and adsorbed in an amount of 50 μl on a 96 well-microtiter plate at 4° C. overnight. After washing with TBS containing 1 mM CaCl2 and 1 mM MgCl2, 100 μl of 1% bovine serum albumin was added, blocking was conducted at 4° C. overnight. […] After washing with TBS-Tween 20, 50 μl of peroxidase labelled avidin which had been diluted with TBS to 4,000 times was added. The reaction was continued for 20 minutes. […] A 50 μl portion of a 0.1M citrate buffer containing 0.05% NaN3 was added to stop the reaction, and absorbance at 415 nm was measured. The rate of Bonding inhibition was calculated from the following formula: [formula]

Structures are written as SMILES. Where a name gives a salt, the structure may show the parent alone.

For `NC[C@H]1CC[C@H](C(=O)NCC(=O)c2ccc(OCC(=O)O)c(OCC(=O)O)c2)CC1` [Example 1, [[4-[[[trans-4-(aminomethyl)cyclohexyl]carbonylamino]acetyl]-o-phenylene]dioxy]diacetic acid trifluoroacetate], the inhibition (usually the relative decrease from the control value, in per cent) at 1 µM in test [1] amounted to 68%. In test [2], this compound returned an inhibition at 10 µM of 51%.
In the same order, the values of `NCC1CCC(c2ncc(-c3ccc(OCC(=O)O)c(OCC(=O)O)c3)o2)CC1` (stereo not drawn) [Example 4, 2-(4-aminomethylcyclohexyl)-5-(3,4-dicarboxymethoxy)phenyloxazole] are 85% and 73%.
In the same order, the values of `NC[C@H]1CC[C@H](C(=O)NCCc2ccc(OCC(=O)O)c(OCC(=O)O)c2)CC1` [Example 7, [[4-[[2-[trans-4-(aminomethyl)cyclohexyl]carbonylamino]ethyl]-o-phenylene]dioxy]diacetic acid trifluoroacetate] are 48% and 27%.
`CN(CC(=O)c1ccc(OCC(=O)O)c(OCC(=O)O)c1)C(=O)CCC1CCNCC1` [Example 9, [[4-[[N-[3-(piperidin-4-yl)propionyl]-N-methylamino]acetyl]-o-phenylene]dioxy]diacetic acid trifluoroacetate]: the inhibition at 1 µM in test [1] worked out at 79%. This compound had an inhibition at 0.1 µM in test [2] of 73%.
As for `O=C(O)COc1ccc(C(=O)CNC(=O)CCC2CCNCC2)cc1OCC(=O)O` [Example 10, [[4-[[N-[3-(piperidin-4-yl)propionyl]amino]acetyl]-o-phenylene]dioxy]diacetic acid trifluoroaceetate], in test [1], the IC50 (as a rule, the concentration needed to halve the response being measured) came to 0.35 µM and testing at 1 µM gave an inhibition of 85%. In addition, 0.1 µM produced 82% inhibition in test [2].
In the case of `O=C(O)COc1ccc(C(=O)CNC(=O)c2cc3c(s2)CCNC3)cc1OCC(=O)O` [Example 18, [[4-[[[(4,5,6,7-tetrahydrothieno [3,2-c]pyridin-2-yl]carbonyl]amino]acetyl]-o-phenylene]dioxy]diacetic acid trifluoroacetate], the results for the IC50 in test [1] and in test [2] were 0.14 µM and 1.7 µM, respectively.
As to `CN(CC(=O)c1ccc(OCC(=O)O)c(OCC(=O)O)c1)C(=O)c1cc2c(s1)CCNC2` [Example 19, [[4-[[[(4,5,6,7-tetrahydrothieno[3,2-c]pyridin-2-yl)carbonyl]-N-methylamino]acetyl]-o-phenylene]dioxy]diacetic acid trifluoroacetate], the IC50 in test [1] was 0.55 µM; in test [2], 3.6 µM.
In the same order, the values of `O=C(O)COc1ccc(C(O)CNC(=O)c2cc3c(s2)CCNC3)nc1` (stereo not drawn) [Example 21, 2-[1-hydroxy-2-[(4,5,6,7-tetrahydrothieno[3,2-c]pyridin-2-yl)carbonylamino]ethyl]pyridin-5-yloxyacetic acid trifluoroacetate] are 0.5 µM and 10 µM.
Turning to `O=C(O)COc1ccc(C(=O)CNC(=O)c2cc3c(s2)CCNC3)cc1` [Example 22, 4-[[(4,5,6,7-tetrahydrothieno[3,2-c]pyridin-2-yl)carbonyl]aminoacetyl]phenoxyacetic acid trifluoroacetate], the figures for the IC50 in test [1] and in test [2] were 1.2 µM and over 10 µM, respectively.
Regarding `Cc1c(C(=O)NCC(=O)c2ccc(OCC(=O)O)c(OCC(=O)O)c2)sc2c1CNCC2` [Example 27, [[4-[[[(3-methyl-4,5,6,7-tetrahydrothieno[3.2-c]pyridin-2-yl)carbonyl]amino]acetyl]-o-phenylene]dioxy]diacetic acid trifluoroacetate], the IC50 came to 2.5 µM in test [1] and 9.5 µM in test [2].

The values above are taken from patent US5594004A, “Compound with platelet aggregation inhibitor activity” (Meiji Seika Kabushiki Kaisha, priority 1993, dated 1997).
